This is an account of results in paper PMC11056980 (Journal of medicinal chemistry, 2024).

“Also recorded” adds a separate entry of the source. Residues, ends and D or L forms follow the SMILES beside them. *: point of attachment. Cbz = O=C(OCc1ccccc1)*

Test [1] deals with recombinant SARS-CoV-2 Δ3678 mGFP containing an NSP5 E166A mutation. As to conditions: cited from earlier work.
The target of test [2] is M^Pro-eGFP fusion protein (Severe acute respiratory syndrome coronavirus 2, UniProt P0DTD1, Q3569G). The format is cell-based, SARS-CoV-2.
Test [3] has as its system SARS-CoV-2 delta variant hCoV-19/USA/MD-HP05647/2021. It is filed as cell-based.
The test system of test [4] is recombinant SARS-CoV-2 Δ3678 mGFP containing an NSP5 E166A mutation. It is filed as cell-based.
The next test deals with M^Pro (Severe acute respiratory syndrome coronavirus 2, UniProt P0DTD1). It is filed as cell-based, SARS-CoV-2.

With `CC(C)(C)[C@H](NC(=O)C(F)(F)F)C(=O)N1C[C@H]2[C@@H]([C@H]1C(=O)N[C@H](C#N)C[C@@H]1CCNC1=O)C2(C)C` [nirmatrelvir], the “resistance conferred by NSP5 E166A mutation” value in test [1] is 10 fold.
Turning to `C[C@@H](OC(C)(C)C)[C@H](NC(=O)OCc1cccc(OCCCCCCOc2cccc3c2C(=O)N(C2CCC(=O)NC2=O)C3=O)c1)C(=O)N[C@@H](CC1CCCCC1)C(=O)N[C@H](C=O)C[C@@H]1CCNC1=O` (some centres unmarked) [MPD2], in test [2], the “M^Pro degradation in CRBN knockout vs wildtype CRBN cells” value is listed as “significant rescue of intracellular M^Pro” and the “M^Pro degradation, time course” value is recorded as “significant degradation; also recorded: nearly maximal degradation”. Moreover, the “antiviral synergy with nirmatrelvir” value in test [3] is given as “synergistic effects”. In addition, the “greater potency against NSP5 E166A mutant virus compared to wild-type Δ3678 mGFP” value in test [4] stood at 5 fold. Further, the “M^Pro degradation during SARS-CoV-2 infection” value on M^Pro is given as “most potent degrader”.
Take `CC(C)C[C@@H](C=O)NC(=O)[C@H](CC(C)C)NC(=O)[C@H](CC(C)C)NC(=O)OCc1ccccc1` [MG132, reference compound] (Cbz-Leu-Leu-Leu-aldehyde): the “Effect of proteasome inhibitor pretreatment on MPD2-induced M^Pro degradation” value in test [2] is reported as “effectively rescued”.
With `C[C@@H](OC(C)(C)C)[C@H](NC(=O)OCc1ccccc1)C(=O)N[C@@H](CC1CCCCC1)C(=O)N[C@H](C=O)C[C@@H]1CCNC1=O` [MPI8, reference compound], the “Effect of pretreatment on MPD2-induced M^Pro degradation (competition)” value in test [2] is “completely blocked”.
